Measured values reported in patent US7541368B2, “Pyrazoles as inhibitors of tumor necrosis factor” (Aventis Pharmaceuticals Inc., priority 2003, dated 2009).
pIC50: −log10 of the molar value. Where two headings read alike, the source gives them in different places.

How the values were obtained:
[1] = tested on: TNF-alpha release in THP-1 cells; test: LPS-induced TNF-alpha release in THP-1 cells; type: cell-based; settings: Homo sapiens, THP-1, LPS-stimulated THP-1 cells
Procedure, shortened: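 TNF-alpha in supernatants was quantified by sandwich ELISA against a log/log recombinant standard curve (0.125-16 ng/ml). Before this, THP-1 cells (1×10^6 cells/ml, serum-reduced) received compound at 1×10^−9 to 1×10^−6 M in 0.3% DMSO for 1 h, then LPS 20 μg/ml for 18 h.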

[2] = biological target: T1, Inactive N-terminal His6 tagged murine P38 (Mus musculus, UniProt P47811); test: p38 cascade assay (HTRF; inactive p38 activated by MKK-6, ATF-2 phosphorylation); type: biochemical; settings: inactive p38 preincubated with compound, then MKK-6, ATF-2, ATP; read-out: 50% inhibition in the p38 cascade assay at concentrations within the range
T1 construct: His6 (N); made in house
T1 sequence (P47811 whole entry): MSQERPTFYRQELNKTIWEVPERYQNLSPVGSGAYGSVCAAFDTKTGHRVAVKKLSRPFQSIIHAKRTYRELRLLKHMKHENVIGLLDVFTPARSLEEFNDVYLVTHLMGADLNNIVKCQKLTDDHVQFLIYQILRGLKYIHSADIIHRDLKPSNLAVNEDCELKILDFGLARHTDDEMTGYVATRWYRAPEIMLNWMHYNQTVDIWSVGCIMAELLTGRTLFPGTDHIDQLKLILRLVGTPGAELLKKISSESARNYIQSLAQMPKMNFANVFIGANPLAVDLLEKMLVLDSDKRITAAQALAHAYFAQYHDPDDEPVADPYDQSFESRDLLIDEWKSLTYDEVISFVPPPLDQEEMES

Murine p38 = biological target: T2, Murine p38 (Mus musculus, UniProt P47811); test: Murine p38α standard assay against pre-activated p38 (ATF-2 phosphorylation, DELFIA); type: biochemical; settings: murine p38, ATF-2 substrate
T2 construct: purchased CalBiochem 506122
T2 sequence (P47811 whole entry): as above
Description: Compounds of the invention were tested in a conventional assay against pre-activated p38. Murine p38 enzyme activity was determined by measuring the incorporation of the γ-phosphate of ATP into ATF-2.
Human GST-tagged ATF-2 (50 μg/ml) was coated onto 96 well plates. Assay buffer (25 mM Hepes buffer, pH 7.7 containing 25 mM magnesium chloride, 2 mM dithiothreitol, 1 mM sodium orthovanadate and 100 μM ATP) was then added to each well. Compounds were dissolved in DMSO (100%) and added to the assay buffer to give a fmal DMSO concentration of 0.3%. Murine p38 (CalBiochem Catalog # 506122; 40 ng/ml) was then added and the assay continued for 1 hour.
Phosphorylated ATF-2 was quantitated using a rabbit anti-human phospho (threonine 71)-specific ATF-2 primary antibody (Cell Signaling, Catalog # 9221B) followed by a sheep europium N^1-labelled anti-rabbit IgG secondary antibody (Perkin Elmer Life Sciences Catalog # AD0105) and addition of the DELFIA enhancement solution (Perkin Elmer Life Sciences) resulting.
Fluorescence was measured using a Wallac Victor^2 1420 multi-label HTS counter (Perkin Elmer Life Sciences). The results are reported as IC50 values. Compounds were tested over the concentration range of 3×10^−10M to 3>10^−5M.

[3] = tested on: Human HSP27 phosphorylation; test: HSP27 phosphorylation in LPS stimulated THP-1 cells; type: cell-based; settings: Western blot, read-out: HSP-27
Description: The effects of compounds on Heat Shock Protein (HSP)-27 phosphorylation in LPS stimulated THP-1 cells were examined as follows:
THP-1 cells were maintained as described for the TNF-alpha assay (1.1.).
THP-1 cells (1×10 ^6 cells/ml, total volume 1 ml) in culture medium were incubated for one hour (5% CO2, 37° C.) with fresh medium containing compounds (0.0001-30 μM) or vehicle (0.1% DMSO). LPS ([…]) was then added to the cells (except the untreated cell sample) and the incubation continued for a further 20 minutes. Cells were collected, centrifuiged and washed with ice-cold PBS buffer (free of Ca^2+ and Mg^2+). Cell lysates were prepared with 1× lysis buffer (Promega Catalog# E153A) for storage at −20° C.
HSP27 phosphorylation was determined by Western blot-enhanced chemi-luminescence (ECL-Amersham)). Briefly, cell lysates were electrophoresed on 12% Tris-glycine gels and transferred to nitrocellulose membranes. The membranes were then probed with primary rabbit antiphospho-HSP27 (ser82) antibody and secondary anti-rabbit antibody conjugated to horse raddish peroxidase. After addition of the ECL detection reagent, the film was developed and the p-HSP27 immunoreactivity quantified by densitometry.

[4] = TNF-alpha by ELISA, read-out: THP 1 cells
[5] = read-out: 50% inhibition in the LPS-induced TNF-alpha release in THP-1 cells assay at concentrations within the range

| SMILES | pIC50 [1, 4] | pIC50 [1, 5] | pIC50 [2] | pIC50 (Murine p38) | pIC50 [3] |
| --- | --- | --- | --- | --- | --- |
| COc1ccc(C(=O)N2CCC(Cc3cccc(NC(=O)Nc4cc(C(C)(C)C)nn4-c4ccc(C)cc4)c3)CC2)c(OC)c1 [Compound A27, 1-(5-tert-butyl-2-p-tolyl-2H-pyrazol-3-yl)-3-{3-[1-(2,4-dimethoxy-benzoyl)-piperidin-4-ylmethyl]-phenyl}-urea] | 7.97 | 6.30 to 8.00 | 7.00 to 8.00 | 6.67 | 7.57 |
| COc1ccc(C(=O)N2CCC(Cc3ccc(NC(=O)Nc4cc(C(C)(C)C)nn4-c4ccc(C)cc4)cc3)CC2)c(OC)c1 [Compound A218, 1-(5-tert-Butyl-2-p-tolyl-2H-pyrazol-3-yl)-3-{4-[1-(2,4-dimethoxy-benzoyl)-piperidin-4-ylmethyl]-phenyl}-urea] | 7.81 | 6.30 to 8.00 | 7.00 to 8.00 | 6.64 | – |
| COc1ccc(C(=O)N2CCC(Cc3ccccc3NC(=O)Nc3cc(C(C)(C)C)nn3-c3ccc(C)cc3)CC2)c(OC)c1 [Compound A1113, 1-(5-tert-butyl-2-p-tolyl-2H-pyrazol-3-yl)-3-{2-[1-(2,4-dimethoxy-benzoyl)-piperidin-4-ylmethyl]-phenyl}-urea] | 7.08 | 6.30 to 8.00 | – | 6.30 | – |
| COc1ccc(C(=O)N2C3CCC2CC(Cc2ccc(NC(=O)Nc4cc(C(C)(C)C)nn4-c4ccc(C)cc4)cc2)C3)c(OC)c1 (stereo not shown) [Example 4, 1-(5-tert-Butyl-2-p-tolyl-2H-pyrazol-3-yl)-3-{4-[8-(2,4-dimethoxy-benzoyl)-8-aza-bicyclo[3.2.1]oct-3-ylmethyl]-phenyl}-urea] | 7.10 | – | – | 5.93 | – |
| COc1ccc(C(=O)N2C3CCC2CC(Cc2ccccc2NC(=O)Nc2cc(C(C)(C)C)nn2-c2ccc(C)cc2)C3)c(OC)c1 (stereo not shown) [Example 5, 1-(5-tert-butyl-2-p-tolyl-2H-pyrazol-3-yl)-3-{2-[8-(2,4-dimethoxy-benzoyl)-8-aza-bicyclo[3.2.1]oct-3-ylmethyl]-phenyl}-urea] | 5.29 | – | – | 5.17 | – |
